A short description of series [1]: Parallel Artificial Membrane Permeability Assay (PAMPA) at pH 6.8. The format is physicochemical. The source says: The physicochemical properties of relevance for the absorption of the compound, such as the solubility and the membrane permeability, especially at a pH close to neutral pH can be measured using the procedure as described by L. ZHOU et al. in JOURNAL OF PHARMACEUTICAL SCIENCES, VOL. 96, NO. 11, p. 3052-3071 (2007) for the solubility at pH 6.8 and the procedure as described by F. Wohnsland and B. Faller in Journal of Medicinal Chemistry Vol 44, p. 923-930 (2001) for the Parallel Artificial Membrane Permeability Assay (PAMPA) at pH 6.8.
The following permeability log Pe was measured for compound of formula (I) as exemplified below: […]
In general terms: PAMPA measures passive passage across an artificial lipid membrane.

Series [2] has as its system PKB Ser473 phosphorylation in Rat1-myr-HA-p110 alpha cells. The series is described as follows: Reverse protein array, PKB Ser473 phosphorylation in Rat1-myr-HA-p110 alpha cells. The format is cell-based. Conditions: Rattus norvegicus, 0.5 h, 30 minutes compound incubation, read-out: p-PKB/IC50_alpha. The method, then: (§1) No. 15140-114) and 10 μg/ml Puromycine (Sigma, cat. No. P9620).
(§2) The Rat1-myr-HA-p110 alpha, beta and delta cells were trypsinized and counted with a CASY TT cell counter (Schärfe System GmbH, Reutlingen Germany). The cells were diluted in fresh DMEM complete medium and 3×10^4 cells/150 μl/well seeded in 96-well TPP-tissue culture plates (TPP, cat. No. 92096). The plates were incubated at 37° C. and 5% CO2 under humidified condition for at least 20 h. Compound of formula I working solutions were prepared freshly as serial 8 step dilutions (vol/vol) in DMSO on the day of the experiment. The working solutions were further diluted 1/500 in cell culture medium to get final compound concentrations of 10, 3.333, 1.111, 0.370, 0.123, 0.041, 0.014, 0.005 μM. The final DMSO concentration was kept constant at 0.2%. cell culture medium containing 0.2% DMSO was used as vehicle treatment control. Post incubation, the cells were treated with the serial compound dilution. 50 μl of the compound medium mixture was added to the wells containing cells and 150 μl DMEM medium and incubated for 30 minutes (37° C., 5% CO2). After 30 minutes of incubation, the medium mixture was quickly removed by aspiration. For cell lysis, a mixture of 10% CLB1 CeLyA lysis buffer (Zeptosens, cat. No. 9000), 90% CSBL1 CeLyA spotting buffer (Zeptosens, cat. No. 9020) was freshly prepared and supplemented with 1% Octyl β-D-glucopyranoside (SIGMA, cat. No. 08001-5G) and 1 mM Na-Orthovanadate (Sigma, cat No. S-6508). 50 μl of the described lysis buffer mix was added to each well, followed by 10 minutes of incubation on ice. After an additional freeze-thaw cycle, another 50 μl of the lysis buffer mix without Octyl β-D-glucopyranoside was added to the wells, and 90 μl of the cell lysate was transferred to a 96-well V-bottom plate (Fisher Scientific, cat. No. 6067Y), followed by a centrifugation step (5 min, 1500 rpm at 19° C. in an Eppendorf 5810R centrifuge) to remove the unlysed cell debris.
(§3) The samples were spotted onto ZeptoMARK® PWG protein microarray chips (Zeptosens, Witterswil, Switzerland) with the piezoelectric microdispense-based, non-contact Nano-Plotter 2.1 (GeSiM, Grosserkmannsdorf, Germany). Each sample was spotted at 4 different sample concentrations (d1=100%, d2=75%, d3=50%, d4=25%) by diluting the cell lysate with the corresponding volume of lysis buffer mix. After spotting the ZeptoMARK® protein microarrays, the chips are incubated for 1 hour at 37° C. To receive a uniform blocking result, the CeLyA blocking buffer BB1 (Zeptosens, cat. No. 9040) is administered via an ultrasonic nebulizer. After 20 minutes of blocking the chips are extensively rinsed with deionized water (Milli-Q quality, 18MΩ×cm) and dried in a nitrogen air flow.
(§4) After the sample spotting and blocking procedure, the ZeptoMARK® chips were transferred to the ZeptoCARRIER (Zeptosens, cat. No. 1100), whose six flow cells individually address the six arrays on a chip, and washed twice with 200 μl CAB1 CeLyA assay buffer (Zeptosens, cat. No. 9032). The assay buffer was then aspirated and each compartment incubated with 100 μl of the primary target antibody (pAkt Ser473; CST#9271) at RT over night. Post incubation, the primary antibody was removed, the arrays washed twice with CAB1 buffer and further incubated with 100 μl of Alexa fluor 647-labeled anti rabbit IgG Fab fragments (Invitrogen; #Z25305) for one hour at RT in the dark. After incubation, the arrays were washed twice with 200 μl CAB1 buffer. The fluorescence of the target-bound Fab fragments is read out on the ZeptoReader (Zeptosens, Witterswil, Switzerland) using a laser (excitation wavelength 635 nm) and a CCD camera. The fluorescence signal was assessed with exposure times of 1, 3, 5 and 10 seconds, depending on the intensity of the signal. The resulting four images taken per array are stored as 16-bit TIF files. […]

In series [3] the test system is PKB Ser473 phosphorylation in Rat1-myr-HA-p110 beta cells. The series is described as follows: Reverse protein array, PKB Ser473 phosphorylation in Rat1-myr-HA-p110 beta cells. The format is cell-based. The settings on record: Rattus norvegicus, 0.5 h, 30 minutes compound incubation, read-out: p-PKB/IC50_beta. The method, then:
as §1, §2, §3, §4

Series [4] has as its system PKB Ser473 phosphorylation in Rat1-myr-HA-p110 delta cells. The series is described as follows: Reverse protein array, PKB Ser473 phosphorylation in Rat1-myr-HA-p110 delta cells. The format is cell-based. Conditions: Rattus norvegicus, 0.5 h, 30 minutes compound incubation, read-out: p-PKB/IC50_delta. The protocol: as §1, §2, §3, §4
Series [5] has as its system S6 Ribosomal Protein phosphorylation Ser235/236 in TSC1 null mouse embryo fibroblast (MEF) cells. The series is described as follows: Reverse protein array, S6 Ribosomal Protein phosphorylation in TSC1 null MEF cells. The format is cell-based. Conditions: 1 h, TSC1-/- MEFs, 60 minutes. The method, then:
TSC1−/− MEFs cells (provided by D. Kwiatkowski), were cultivated in Dulbecco's modified Eagle's medium (DMEM high Glucose, GIBCO, cat. No. 41956-039) supplemented with 10% heat inactivated fetal bovine calf serum (Amimed, cat. No. 2-01F16-I), 1% L-Glutamine (Invitrogen, cat. No. 25030-02), 1% penicillin-streptomycin (GIBCO, cat. No. 15140-114) at 37° C. in a 5% CO2 and 95% relative humidity atmosphere incubator.
The TSC1−/− cells were trypsinized and counted with a CASY TT cell counter (Schärfe System GmbH, Reutlingen Germany). The cells were diluted in fresh DMEM complete medium and 0.75×10^4 cells/150 μl/well seeded in 96-well TPP-tissue culture plates (TPP, cat. No. 92096). The plates were incubated at 37° C. and 5% CO2 under humidified condition for at least 20 h. Working solutions were prepared freshly as serial 8 step dilutions (vol/vol) in DMSO on the day of the experiment. The working solutions were further diluted 1/5000 in cell culture medium to get final compound concentrations of […]. The final DMSO concentration was kept constant at 0.02%. cell culture medium containing 0.02% DMSO was used as vehicle treatment control. Post incubation, the cells were treated with the serial compound dilution. 50 μl of the compound medium mixture was added to the wells containing cells and 150 μl DMEM medium and incubated for 60 minutes (37° C., 5% CO2). After 60 minutes of incubation, the medium mixture was quickly removed by aspiration. For cell lysis, a mixture of 10% CLB1 CeLyA lysis buffer (Zeptosens, cat. No. 9000), 90% CSBL1 CeLyA spotting buffer (Zeptosens, cat. No. 9020) was freshly prepared and supplemented with 1% Octyl β-D-glucopyranoside (SIGMA, cat. No. 08001-5G) and 1 mM Na-Orthovanadate (Sigma, cat No. S-6508). 50 μl of the described lysis buffer mix was added to each well, followed by 10 minutes of incubation on ice. After an additional freeze-thaw cycle, another 50 μl of the lysis buffer mix without Octyl β-D-glucopyranoside was added to the wells, and 90 μl of the cell lysate was transferred to a 96-well V-bottom plate (Fisher Scientific, cat. No. 6067Y), followed by a centrifugation step (5 min, 1500 rpm at 19° C. in an Eppendorf 5810R centrifuge) to remove the unlysed cell debris.
The spotting of the chips follows the previous described method.
The signal detection and the data analysis follows the previous described method using the pS6 ribosomal protein Ser235/236 (CST, cat. No. #2211) as a primary antibody.

Like-named read-outs stand apart in the source and are kept apart here.

As to `Cc1ncccc1-n1c(=O)n(C)c2cnc3ccc(-c4ccc5nccn5c4)cc3c21` [Example 2.23, 8-Imidazo[1,2-a]pyridin-6-yl-3-methyl-1-(2-methyl-pyridin-3-yl)-1,3-dihydro-imidazo[4,5-c]quinolin-2-one], in series [1], the “HT-Perm logPe pH6.8” value is given as −5.3. Further, the IC50 in series [2] is 64.1 nM; in series [3] it was 273 nM; in series [4], 1060 nM; in series [5] (read-out: p-S6 IC50), 37 nM.
For `CCOc1ccc(-c2ccc3ncc4c(c3c2)n(-c2ccc(OC)nc2OC)c(=O)n4C)cn1` [Example 8.2, 1-(2,6-Dimethoxy-pyridin-3-yl)-8-(6-ethoxy-pyridin-3-yl)-3-methyl-1,3-dihydro-imidazo[4,5-c]quinolin-2-one], in series [1], the “HT-perm/logPe pH6.8” value was −4.3. Also, the IC50 in series [2] worked out at 7.36 nM; in series [3] it was 34.6 nM; in series [4], 113 nM; in series [5] (read-out: p-S6) it was 7.69 nM.
The like results for `CNc1ccc(-c2ccc3ncc4c(c3c2)n(-c2ccc(OC)nc2OC)c(=O)n4C)cn1` [Example 8.3, 1-(2,6-Dimethoxy-pyridin-3-yl)-3-methyl-8-(6-methylamino-pyridin-3-yl)-1,3-dihydro-imidazo[4,5-c]quinolin-2-one] were, in that order, −3.8, 4.57 nM, below 4.57 nM, 19.5 nM and 1.05 nM.
As for `COCCOc1cncc(-c2ccc3ncc4c(c3c2)n(-c2ccc(OC)nc2OC)c(=O)n4C)c1` [Example 8.8, 1-(2,6-Dimethoxy-pyridin-3-yl)-8-[5-(2-methoxy-ethoxy)-pyridin-3-yl]-3-methyl-1,3-dihydro-imidazo[4,5-c]quinolin-2-one], the “HT-Perm logPe pH6.8” value in series [1] is given as −3.8. The IC50 in series [2] is 72.6 nM; in series [3] it was 115 nM; in series [4], 143 nM; in series [5] (read-out: p-S6 IC50) it was 7 nM.
With `CCOc1ccc(-c2ccc3ncc4c(c3c2)n(-c2ccc(OC)nc2C)c(=O)n4C)cn1` [Example 11.1, 8-(6-Ethoxy-pyridin-3-yl)-1-(6-methoxy-2-methyl-pyridin-3-yl)-3-methyl-1,3-dihydro-imidazo[4,5-c]quinolin-2-one], the “HT-perm/logPe pH6.8” value in series [1] is on record as −3.8. Besides, the IC50 in series [2] worked out at 5.01 nM; in series [3], 11.7 nM; in series [4], 92.1 nM; in series [5] (read-out: p-S6), 10.6 nM.
For the molecule `CNc1ncc(-c2ccc3ncc4c(c3c2)n(-c2cncc(C)c2)c(=O)n4C)cn1` [Example 17.2, 3-Methyl-8-(2-methylamino-pyrimidin-5-yl)-1-(5-methyl-pyridin-3-yl)-1,3-dihydro-imidazo[4,5-c]quinolin-2-one], the IC50 in series [2] is 46.8 nM; in series [3], 94.6 nM; in series [4] it was 206 nM; in series [5] (read-out: p-S6 IC50), 10 nM.
`COc1ncc(-c2ccc3ncc4c(c3c2)n(-c2ccc(C(C)(C)O)nc2C)c(=O)n4C)c(OC)n1` [Example 31.3, 8-(2,4-Dimethoxy-pyrimidin-5-yl)-1-[6-(1-hydroxy-1-methyl-ethyl)-2-methyl-pyridin-3-yl]-3-methyl-1,3-dihydro-imidazo[4,5-c]quinolin-2-one]: the “HT-Perm logPe pH6.8” value in series [1] is recorded as −4.1. For the same molecule, the IC50 is 5.3 nM in series [2], 132 nM in series [3], 26.4 nM in series [4] and 1 nM in series [5] (read-out: p-S6 IC50).
In the case of `CCNc1cc(-c2ccc3ncc4c(c3c2)n(-c2ccc(N3CC[C@H](O)C3)nc2C)c(=O)n4C)cnc1CO` [Example 32.6, 8-(5-Ethylamino-6-hydroxymethyl-pyridin-3-yl)-1-[6-((S)-3-hydroxy-pyrrolidin-1-yl)-2-methyl-pyridin-3-yl]-3-methyl-1,3-dihydro-imidazo[4,5-c]quinolin-2-one], the IC50 is 24.3 nM in series [2], 39.7 nM in series [3], 83.2 nM in series [4] and 8.6 nM in series [5] (read-out: p-S6 IC50).
Consider `Cc1nc(N2CC[C@@H](O)C2)ccc1-n1c(=O)n(C)c2cnc3ccc(-c4cncc(C(C)(C)C#N)c4)cc3c21` [Example 34.5, 2-(5-{1-[6-((R)-3-Hydroxy-pyrrolidin-1-yl)-2-methyl-pyridin-3-yl]-3-methyl-2-oxo-2,3-dihydro-1H-imidazo[4,5-c]quinolin-8-yl}-pyridin-3-yl)-2-methyl-propionitrile], for which the IC50 turned out to be 30.3 nM in series [2], 31 nM in series [3], 84.2 nM in series [4] and 2 nM in series [5] (read-out: p-S6 IC50).

The values are drawn from patent US20100311714A1, “1H-IMIDAZO[4,5-c]QUINOLINONE COMPOUNDS” (priority 2009, published 2010).
